28 compounds from patent publication US12528801B2 (Givaudan SA, priority 2019, dated 2026) can be followed below.

Molecules are shown by their SMILES.

In the assay the target is T1, hTRPM8 (Homo sapiens, UniProt Q7Z2W7).
T1 construct: expressed in transfected cells
T1 sequence (Q7Z2W7 whole entry): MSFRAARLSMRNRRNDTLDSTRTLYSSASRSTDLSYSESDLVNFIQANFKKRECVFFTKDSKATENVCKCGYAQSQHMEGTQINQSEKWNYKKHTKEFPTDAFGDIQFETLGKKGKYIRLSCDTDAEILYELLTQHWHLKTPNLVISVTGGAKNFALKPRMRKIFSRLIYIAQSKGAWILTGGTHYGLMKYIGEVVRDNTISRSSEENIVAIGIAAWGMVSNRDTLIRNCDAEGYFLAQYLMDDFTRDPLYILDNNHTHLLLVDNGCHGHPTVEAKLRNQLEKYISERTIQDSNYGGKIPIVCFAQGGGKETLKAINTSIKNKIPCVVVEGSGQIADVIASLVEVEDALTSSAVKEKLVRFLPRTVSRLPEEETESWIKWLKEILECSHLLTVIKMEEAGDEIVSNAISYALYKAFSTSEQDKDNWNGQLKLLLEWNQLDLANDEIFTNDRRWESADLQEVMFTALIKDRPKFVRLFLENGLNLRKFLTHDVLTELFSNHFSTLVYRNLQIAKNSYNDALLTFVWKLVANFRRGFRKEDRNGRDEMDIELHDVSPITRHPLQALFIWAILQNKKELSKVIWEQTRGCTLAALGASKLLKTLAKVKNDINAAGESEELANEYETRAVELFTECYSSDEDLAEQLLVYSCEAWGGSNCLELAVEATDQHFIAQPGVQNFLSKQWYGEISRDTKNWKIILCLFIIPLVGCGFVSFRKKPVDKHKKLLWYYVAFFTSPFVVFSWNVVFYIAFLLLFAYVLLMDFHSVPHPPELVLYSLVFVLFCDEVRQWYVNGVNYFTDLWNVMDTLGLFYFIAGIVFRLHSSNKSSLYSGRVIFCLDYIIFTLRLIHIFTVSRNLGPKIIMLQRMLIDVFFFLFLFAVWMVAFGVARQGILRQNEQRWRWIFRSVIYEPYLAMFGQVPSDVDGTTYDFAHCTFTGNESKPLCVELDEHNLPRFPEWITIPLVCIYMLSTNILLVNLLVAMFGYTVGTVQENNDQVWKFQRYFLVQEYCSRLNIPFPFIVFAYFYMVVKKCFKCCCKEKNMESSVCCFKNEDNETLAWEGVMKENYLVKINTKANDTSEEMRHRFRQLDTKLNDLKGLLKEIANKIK
Briefly: Assay on TRPM8 modulators: calcium imaging (Fluo-4, Flexstation) in HEK293 cell line stably expressing hTRPM8. The format is cell-based. The conditions noted are these: HEK293 cells stably expressing hTRPM8; calcium influx, Fluo-4, Flexstation 3; sigmoidal dose-response fit. How it is done:
A HEK293 cell line stably expressing hTRPM8 was generated according to Klein of at, (Chem. Senses 36: […], 2011) and receptor activation was monitored by calcium imaging in a Flexstation. For Ca-imaging assays of TRPM8 channel activation, cells were seeded on day 0 at a density of 12000 cells per well in Dulbecco's modified Eagle medium (DMEM) containing 9% foetal bovine serum in black, clear bottom 96-well plates that had been coated with 0.001% polyethyleneimine (molecular weight=60 000, Acros Organics). On day 2, agonists were evaluated via calcium imaging using Fluo-4. Briefly, growth medium was discarded, and the cells were incubated in the dark for 1 h at 37° C. in 50 μL loading buffer consisting of 2.7 μM Fluo-4 AM (Invitrogen) and […] probenecid (Sigma-Aldrich) in DMEM (without serum). After incubation, the plates were washed five times with 100 μL of assay buffer (in mM: 130 NaCl, 5 KCl, 10 HEPES, 2 CaCl2, and 10 glucose, pH7.4.) and further incubated in the dark at room temperature for 30 min. The cells were then washed five times with 100 μL assay buffer and then calcium influx to serial dilutions of inventive compounds were measured in a Flexstation 3 (Molecular Devices). Receptor activation was initiated following addition of 20 μl of a 10-fold concentrated ligand stock solution, which is also prepared in assay buffer. Fluorescence was continuously monitored for 15 seconds prior to ligand addition and for 105 seconds after ligand addition, for a total of 120 seconds. Maximal receptor activation in relation to solvent control and relative to 31.6 μM menthol is determined. Data from serial dilutions were processed with a KNIME workflow to fit a sigmoidal dose-response curve and to extrapolate […].
The EC50 is the concentration at which the effect is half-maximal. `CO[C@@H]1C[C@H]1C(=O)N1CCCCC1c1nc(-c2ccccc2)c[nH]1` (relative stereo) [Compound 5, (trans-2-methoxycyclopropyl)(2-(4-phenyl-1H-imidazol-2-yl)piperidin-1-yl)methanone]: the EC50 was 1000 to 35000 nM.

In the case of `N#C[C@@H]1C[C@@H]1C(=O)N1CCCCC1c1nc(-c2ccccc2)c[nH]1` (relative stereo) [Compound 90, cis-2-(2-(4-phenyl-1H-imidazol-2-yl)piperidine-1-carbonyl)cyclopropane-1-carbonitrile], the EC50 was 1000 to 35000 nM.

In the case of `O=C(c1cnns1)N1CCCCC1c1nc(-c2ccccc2)c[nH]1` (stereo not shown) [Compound 1, (2-(4-phenyl-1H-imidazol-2-y)piperidin-1-yl)(1,2,3-thiadiazol-5-yl)methanone], the EC50 is 1000 to 35000 nM.

As to `O=C(C1CSC1)N1CCCCC1c1nc(-c2ccccc2)c[nH]1` (stereo not shown) [Compound 2, (2-(4-phenyl-1H-imidazol-2-yl)piperidin-1-yl)(thietan-3-yl)methanone], the concentration for a half-maximal effect (EC50) was in the range of 300 to 1000 nM.

Turning to `CC1(C)CC1C(=O)N1CCCCC1c1nc(-c2ccccc2)c[nH]1` (stereo not shown) [Compound 3, (2,2-dimethylcyclopropyl)(2-(4-phenyl-1H-imidazol-2-yl)piperidin-1-yl)methanone], the EC50 is less than 50 nM.

As to `CCOC1CC1C(=O)N1CCCCC1c1nc(-c2ccccc2)c[nH]1` (stereo not shown) [Compound 4, (2-ethoxycyclopropyl)(2-(4-phenyl-1H-imidazol-2-yl)piperidin-1-yl)methanone], the concentration giving a half-maximal response (EC50) was 300 to 1000 nM.

`CC1CC1C(=O)N1CCCCC1c1nc(-c2ccccc2)c[nH]1` (stereo not shown) [Compound 6, (2-methylcyclopropyl)(2-(4-phenyl-1H-imidazol-2-yl)piperidin-1-yl)methanone]: the EC50 lay within 50 to 300 nM.

Turning to `CC1CC(C(=O)N2CCCCC2c2nc(-c3ccccc3)c[nH]2)CO1` (stereo not shown) [Compound 7, (5-methyltetrahydrofuran-3-yl)(2-(4-phenyl-1H-imidazol-2-yl)piperidin-1-yl)methanone], the EC50 is 1000 to 35000 nM.

`C/C=C(\C)C(=O)N1CCCCC1c1ncc(-c2ccc(F)c(F)c2)[nH]1` (stereo not shown) [Compound 8, (E)-1-(2-(5-(3,4-difluorophenyl)-1H-imidazol-2-yl)piperidin-1-yl)-2-methylbut-2-en-1-one]: the concentration giving a half-maximal response (EC50) lay within 50 to 300 nM.

Consider `C/C=C(\C)C(=O)N1CCCCC1c1ncc(-c2ccc(C)cc2)[nH]1` (stereo not shown) [Compound 9, (E)-2-methyl-1-(2-(5-(p-tolyl)-1H-imidazol-2-yl)piperidin-1-yl)but-2-en-1-one], for which the concentration giving a half-maximal response (EC50) is less than 50 nM.

Turning to `C/C=C/C(C)C(=O)N1CCCCC1c1ncc(-c2ccc(C)cc2)[nH]1` (stereo not shown) [Compound 10, (E)-2-methyl-1-(2-(5-(p-tolyl)-1H-imidazol-2-yl)piperidin-1-yl)pent-3-en-1-one], the EC50 was less than 50 nM.

For `CS[C@@H](C)C(=O)N1CCCC[C@@H]1c1ncc(-c2ccc(C)cc2)[nH]1` [Compound 12, (S)-2-(methylthio)-1-((R)-2-(5-(p-tolyl)-1H-imidazol-2-yl)piperidin-1-yl)propan-1-one], the concentration for a half-maximal effect (EC50) is less than 50 nM.

Take `CS[C@@H](C)C(=O)N1CCCC[C@H]1c1ncc(-c2ccc(C)cc2)[nH]1` [Compound 13, (S)-2-(methylthio)-1-((S)-2-(5-(p-tolyl)-1H-imidazol-2-yl)piperidin-1-yl)propan-1-one]: the EC50 was 50 to 300 nM.

Consider `Cc1ccc(-c2cnc(C3CCCCN3C(=O)C3CCOC3)[nH]2)cc1` (stereo not shown) [Compound 14, (tetrahydrofuran-3-yl)(2-(5-(p-toly)-1H-imidazol-2-yl)piperidin-1-yl)methanone], for which the EC50 is 300 to 1000 nM.

As to `CSC(C)C(=O)N1CCCCC1c1nc2ccccc2[nH]1` (stereo not shown) [Compound 15, 1-(2-(1H-benzo[d]imidazol-2-yl)piperidin-1-yl)-2-(methylthio)propan-1-one], the EC50 lay within 1000 to 35000 nM.

On to `CSC(C)C(=O)N1CCCCC1c1nc(-c2cnn(C)c2)c[nH]1` (stereo not shown) [Compound 16, 1-(2-(4-(1-methyl-1H-pyrazol-4-yl)-1H-imidazol-2-yl)piperidin-1-yl)-2-(methylthio)propan-1-one], for which the half-maximal effective concentration (EC50) lay in the range of 300 to 1000 nM.

Consider `CSC(C)C(=O)N1CCCCC1c1nc(-c2ccc3c(c2)OC(F)(F)O3)c[nH]1` (stereo not shown) [Compound 17, 1-(2-(4-(2,2-difluorobenzo[d][1,3]dioxol-5-yl)-1H-imidazol-2-yl)piperidin-1-yl)-2-(methylthio)propan-1-one], for which the EC50 was less than 50 nM.

Consider `CSC(C)C(=O)N1CCCCC1c1nc(-c2ccc3c(c2)CCO3)c[nH]1` (stereo not shown) [Compound 18, 1-(2-(4-(2,3-dihydrobenzofuran-5-yl)-1H-imidazol-2-yl)piperidin-1-yl)-2-(methylthio)propan-1-one], for which the concentration giving a half-maximal response (EC50) was less than 50 nM.

With `CSC(C)C(=O)N1CCCCC1c1nc(-c2ccc3c(c2)OCC3)c[nH]1` (stereo not shown) [Compound 19, 1-(2-(4-(2,3-dihydrobenzofuran-6-yl)-1H-imidazol-2-yl)piperidin-1-yl)-2-(methylthio)propan-1-one], the EC50 is less than 50 nM.

Take `CSC(C)C(=O)N1CCCCC1c1nc(-c2cc(C)ccc2C)c[nH]1` (stereo not shown) [Compound 20, 1-(2-(4-(2,5-dimethylphenyl)-1H-imidazol-2-yl)piperidin-1-yl)-2-(methylthio)propan-1-one]: the 50% effective concentration (EC50) lay within 300 to 1000 nM.

`CSC(C)C(=O)N1CCCCC1c1nc(-c2ccccc2Cl)c[nH]1` (stereo not shown) [Compound 21, 1-(2-(4-(2-chlorophenyl)-1H-imidazol-2-yl)piperidin-1-yl)-2-(methylthio)propan-1-one]: the concentration for a half-maximal effect (EC50) is less than 50 nM.

With `CSC(C)C(=O)N1CCCCC1c1nc(-c2cnc(C3CC3)o2)c[nH]1` (stereo not shown) [Compound 22, 1-(2-(4-(2-cyclopropyloxazol-5-yl)-1H-imidazol-2-yl)piperidin-1-yl)-2-(methylthio)propan-1-one], the concentration for a half-maximal effect (EC50) lay in the range of 50 to 300 nM.

Turning to `CSC(C)C(=O)N1CCCCC1c1nc(-c2ccccc2F)c[nH]1` (stereo not shown) [Compound 23, 1-(2-(4-(2-fluorophenyl)-1H-imidazol-2-yl)piperidin-1-yl)-2-(methylthio)propan-1-one], the half-maximal effective concentration (EC50) is less than 50 nM.

On to `CSC(C)C(=O)N1CCCCC1c1nc(-c2ccccc2O)c[nH]1` (stereo not shown) [Compound 24, 1-(2-(4-(2-hydroxyphenyl)-1H-imidazol-2-yl)piperidin-1-yl)-2-(methylthio)propan-1-one], for which the EC50 fell in the range of 50 to 300 nM.

As to `CSC(C)C(=O)N1CCCCC1c1nc(-c2cccc(CN(C)C)c2)c[nH]1` (stereo not shown) [Compound 25, 1-(2-(4-(3-((dimethylamino)methyl)phenyl)-1H-imidazol-2-yl)piperidin-1-yl)-2-(methylthio)propan-1-one], the EC50 lay in the range of 300 to 1000 nM.

As for `CSC(C)C(=O)N1CCCCC1c1nc(-c2cc(F)cc(F)c2)c[nH]1` (stereo not shown) [Compound 26, 1-(2-(4-(3,5-difluorophenyl)-1H-imidazol-2-yl)piperidin-1-yl)-2-(methylthio)propan-1-one], the 50% effective concentration (EC50) was less than 50 nM.

Consider `CSC(C)C(=O)N1CCCCC1c1nc(-c2c(C)noc2C)c[nH]1` (stereo not shown) [Compound 27, 1-(2-(4-(3,5-dimethylisoxazol-4-yl)-1H-imidazol-2-yl)piperidin-1-yl)-2-(methylthio)propan-1-one], for which the EC50 lay within 1000 to 35000 nM.

Consider `CSC(C)C(=O)N1CCCCC1c1nc(-c2ccc(C)c(Cl)c2)c[nH]1` (stereo not shown) [Compound 28, 1-(2-(4-(3-chloro-4-methylphenyl)-1H-imidazol-2-yl)piperidin-1-yl)-2-(methylthio)propan-1-one], for which the 50% effective concentration (EC50) was less than 50 nM.
